One compound from patent US6350775B1, “3-phenyl-furan-(5H)-2-one and dihydrofuran-2-one derivatives as antibacterial agents” (priority 1996, dated 2002) can be followed below.

SMILES strings stand for the structures. ≈ marks a conversion by molar mass, not a printed value.

Holding throughout (assay type): cell-based
For assay [1], the system named is Enterococcus faecalis. In words: MIC by agar-dilution, Enterococcus faecalis. The settings on record: agar with 5% defibrinated horse blood, 10^4 CFU/spot, 37° C., 5% carbon dioxide, 48 hours. On the procedure: (§1) The following results were obtained on a standard in vitro test system. The activity is described in terms of the minimum inhibitory concentration (MIC) determined by the agar-dilution technique with an inoculum size of 10^4 CFU/spot. Staphylococci were tested on agar, using an inoculum of 10^4 CFU/spot and an incubation temperature of 37° C. for 24 hours—standard test conditions for the expression of methicillin resistance.
(§2) Streptococci and enterococci were tested on agar supplemented with 5% defibrinated horse blood, an inoculum of 10^4 CFU/spot and an incubation temperature of 37° C. in an atmosphere of 5% carbon dioxide for 48 hours—blood is required for the growth of some of the test organisms.

Assay [2] deals with Staphylococcus aureus MRQS (methicillin resistant quinolone sensitive). The assay can be described thus: MIC by agar-dilution, Staphylococcus aureus MRQS. The settings on record: 10^4 CFU/spot, 37° C., 24 hours. On the procedure: as §1
Assay [3] relates to Staphylococcus aureus MRQR (methicillin resistant quinolone resistant). In words: MIC by agar-dilution, Staphylococcus aureus MRQR. The note with it: 10^4 CFU/spot, 37° C., 24 hours. On the procedure:
as §1

Assay [4] concerns Streptococcus pyogenes C203. In words: MIC by agar-dilution, Streptococcus pyogenes C203. The settings on record: agar with 5% defibrinated horse blood, 10^4 CFU/spot, 37° C., 5% carbon dioxide, 48 hours. The method, then:
as §1, §2

Assay [5] has as its system Coagulase Negative Staphylococcis MS. The assay can be described thus: MIC by agar-dilution, Coagulase Negative Staphylococci MS. The settings on record: 10^4 CFU/spot, 37° C., 24 hours. On the procedure:
as §1

For assay [6], the system named is Bacillus subtilis. The assay can be described thus: MIC by agar-dilution, Bacillus subtilis. The note with it: 10^4 CFU/spot. On the procedure: as §1
The test system of assay [7] is Coagulase Negative Staphylococcis MR (methicillin resistant). In words: MIC by agar-dilution, Coagulase Negative Staphylococci MR. The settings on record: 10^4 CFU/spot, 37° C., 24 hours. On the procedure:
as §1

Assay [8] deals with Staphylococcus aureus Novb. Res (Novobiocin resistant). In words: MIC by agar-dilution, Staphylococcus aureus Novb. Res. The note with it: 10^4 CFU/spot, 37° C., 24 hours. On the procedure:
as §1

In assay [9] the test system is Staphylococcus aureus Oxford. In words: MIC by agar-dilution, Staphylococcus aureus Oxford. The note with it: 10^4 CFU/spot, 37° C., 24 hours. On the procedure: as §1

What is called MIC is the lowest concentration found to suppress growth. The low end stands for inhibition by little substance, the high end for a need for much substance. For `CC(=O)NC[C@H]1CC(c2ccc(C3=CCN(C(=O)CO)CC3)cc2)C(=O)O1` (stereo partly drawn) [Example 5, 5R,3RS-5-Acetamidomethyl-3-(4-[1-hydroxyacetyl-1,2,5,6-tetrahydropyrid-4-yl]phenyl)dihydrofuran-2(3H)-one], the MIC in [1] worked out at 8.0 µg/mL (≈ 21.5 µM); in assay [2], 4.0 µg/mL (≈ 10.7 µM); in [3] it was 8.0 µg/mL (≈ 21.5 µM); in [4], 8.0 µg/mL (≈ 21.5 µM); in assay [5], 2.0 µg/mL (≈ 5.37 µM); in [6], 4.0 µg/mL (≈ 10.7 µM). The MIC in [7], in [8] and in [9] was 4.0 µg/mL (≈ 10.7 µM) throughout.
